Source: ChEMBL document CHEMBL1201862, “PubChem BioAssay data set” (2004)
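These data come from cells grown in 96-well plates and exposed to compound for 48 hours at five concentrations. At the GI50, growth is halved.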 Active and inactive are the calls of the source. Rule as the data show it: active = GI50 up to about 1.1 µM and inactive = higher.

Assays:
Assay in all cases: NCI anticancer screen, dose series, 48 h
NCI-H226 = system: NCI-H226
SK-MEL-5 = system: SK-MEL-5
CAKI-1 = system: CAKI-1
SF-268 = system: SF-268
A498 = system: A498
OVCAR-5 = system: OVCAR-5
M14 = system: M14
COLO 205 = system: COLO 205
UACC-257 = system: UACC-257
SK-OV-3 = system: SK-OV-3
SR = system: SR
HT-29 = system: HT-29
TK-10 = system: TK-10
OVCAR-3 = system: OVCAR-3
HCT-15 = system: HCT-15
RXF 393 = system: RXF 393
786-0 = system: 786-0
SF-539 = system: SF-539
DU-145 = system: DU-145

Structure (SMILES) | GI50 (NCI-H226) | GI50 (SK-MEL-5) | GI50 (CAKI-1) | GI50 (SF-268) | GI50 (A498) | GI50 (OVCAR-5) | GI50 (M14) | GI50 (COLO 205) | GI50 (UACC-257) | GI50 (SK-OV-3) | GI50 (SR) | GI50 (HT-29) | GI50 (TK-10) | GI50 (OVCAR-3) | GI50 (HCT-15) | GI50 (RXF 393) | GI50 (786-0) | GI50 (SF-539) | GI50 (DU-145)
COc1ccc(/N=C/c2ccc(N(CCC#N)S(=O)(=O)c3ccccc3)cc2)cc1 | > 100 µM (inactive) | > 100 µM (inactive) | > 100 µM (inactive) | > 100 µM (inactive) | > 100 µM (inactive) | > 100 µM (inactive) | > 100 µM (inactive) | > 100 µM (inactive) | > 100 µM (inactive) | > 100 µM (inactive) | > 100 µM (inactive) | > 100 µM (inactive) | > 100 µM (inactive) | > 100 µM (inactive) | > 100 µM | > 100 µM (inactive) | > 100 µM (inactive) | > 100 µM (inactive) | –
CC(=O)ON(C(C)=O)c1ccc(-c2nc3ccccc3s2)cc1C | 2.6 µM (inactive) | 21.5 µM (inactive) | 10.4 µM (inactive) | 52.1 µM (inactive) | 5.11 µM (inactive) | 4.28 µM (inactive) | 59 µM (inactive) | 20.5 µM (inactive) | 50 µM (inactive) | – | 29.2 µM (inactive) | 32 µM (inactive) | 2.96 µM (inactive) | 25.8 µM (inactive) | 12.9 µM | – | 60 µM (inactive) | 41 µM (inactive) | 37.7 µM (inactive)
O=C(O)c1cc(O)nc(SCc2ccccc2)n1 | > 100 µM (inactive) | > 100 µM (inactive) | > 100 µM (inactive) | > 100 µM (inactive) | > 100 µM (inactive) | > 100 µM (inactive) | > 100 µM (inactive) | – | > 100 µM (inactive) | – | > 100 µM (inactive) | > 100 µM (inactive) | > 100 µM (inactive) | > 100 µM (inactive) | > 100 µM | > 100 µM (inactive) | > 100 µM (inactive) | – | > 100 µM (inactive)
CCCCCCCSCC1C(=O)C23C(O)C1CCC2C12COC3(O)C(O)C1C(C)(C)CCC2O (configuration not stated) | 17.7 µM (inactive) | 12.1 µM (inactive) | 4.83 µM (inactive) | 10.8 µM (inactive) | 11.5 µM (inactive) | 17.5 µM (inactive) | 12.2 µM (inactive) | 4.16 µM (inactive) | 7.16 µM (inactive) | 18.1 µM (inactive) | 4.92 µM (inactive) | 13.5 µM (inactive) | 15.9 µM (inactive) | 16.7 µM (inactive) | 9.02 µM | 11.2 µM (inactive) | 13.8 µM (inactive) | 13.2 µM (inactive) | –
O=C(Nc1c(O)[nH]c(=S)[nH]c1=O)c1ccccc1F | > 100 µM (inactive) | > 100 µM (inactive) | > 100 µM (inactive) | > 100 µM (inactive) | > 100 µM (inactive) | > 100 µM (inactive) | > 100 µM (inactive) | > 100 µM (inactive) | > 100 µM (inactive) | > 100 µM (inactive) | > 100 µM (inactive) | > 100 µM (inactive) | > 100 µM (inactive) | > 100 µM (inactive) | > 100 µM | – | > 100 µM (inactive) | > 100 µM (inactive) | –
C/C(=N/NC(=O)C(N)=O)C(CC(C(=O)Nc1ccccc1C)/C(C)=N\NC(=O)C(N)=O)C(=O)Nc1ccccc1C (configuration not stated) | > 100 µM (inactive) | > 100 µM (inactive) | > 100 µM (inactive) | > 100 µM (inactive) | > 100 µM (inactive) | > 100 µM (inactive) | > 100 µM (inactive) | > 100 µM (inactive) | > 100 µM (inactive) | > 100 µM (inactive) | – | > 100 µM (inactive) | > 100 µM (inactive) | > 100 µM (inactive) | – | > 100 µM (inactive) | > 100 µM (inactive) | > 100 µM (inactive) | –
Cc1c(C)c2cc3c(=O)ccoc3c(C)c2oc1=O | 29.8 µM (inactive) | > 100 µM (inactive) | – | 71.3 µM (inactive) | > 100 µM (inactive) | > 100 µM (inactive) | > 100 µM (inactive) | 47 µM (inactive) | > 100 µM (inactive) | 57.1 µM (inactive) | – | – | > 100 µM (inactive) | > 100 µM (inactive) | > 100 µM | 25 µM (inactive) | > 100 µM (inactive) | 85.5 µM (inactive) | –
Cc1cc(C)c(C(=O)/C(=C/c2ccccc2)c2ccccc2)c(C)c1 | 50.9 µM (inactive) | > 100 µM (inactive) | 36.8 µM (inactive) | 76.2 µM (inactive) | – | – | 49.2 µM (inactive) | 91.6 µM (inactive) | 28.4 µM (inactive) | > 100 µM (inactive) | 36.6 µM (inactive) | 28.2 µM (inactive) | 93.5 µM (inactive) | 51.4 µM (inactive) | 20.6 µM | 46.2 µM (inactive) | 56.2 µM (inactive) | 57.5 µM (inactive) | –
OCc1ccc2c(c1)CC1(Cc3ccccc3C1)C2 | 28.1 µM (inactive) | 11.5 µM (inactive) | 15.9 µM (inactive) | 18.1 µM (inactive) | 26.7 µM (inactive) | – | – | 15.6 µM (inactive) | 15.1 µM (inactive) | 25.6 µM (inactive) | 22.3 µM (inactive) | 16.8 µM (inactive) | 21.2 µM (inactive) | 23 µM (inactive) | 25.8 µM | 15.7 µM (inactive) | 15.1 µM (inactive) | 18.3 µM (inactive) | 33.8 µM (inactive)
CCSC1=CC(Cc2ccc(OC)cc2)N(C(=O)OC)C1 (configuration not stated) | > 100 µM (inactive) | 49.4 µM (inactive) | 86.5 µM (inactive) | > 100 µM (inactive) | > 100 µM (inactive) | > 100 µM (inactive) | > 100 µM (inactive) | 81.5 µM (inactive) | 90.6 µM (inactive) | > 100 µM (inactive) | 26.3 µM (inactive) | 94.2 µM (inactive) | > 100 µM (inactive) | 51.4 µM (inactive) | 40.7 µM | 32.3 µM (inactive) | > 100 µM (inactive) | > 100 µM (inactive) | –
COc1ccc2c(c1)CC[C@@H]1C2CC[C@]2(C)C(=O)NC(=O)CC12 (some centres not stated) | 67.5 µM (inactive) | 78.3 µM (inactive) | > 100 µM (inactive) | > 100 µM (inactive) | > 100 µM (inactive) | > 100 µM (inactive) | > 100 µM (inactive) | > 100 µM (inactive) | > 100 µM (inactive) | > 100 µM (inactive) | – | 56.2 µM (inactive) | > 100 µM (inactive) | > 100 µM (inactive) | > 100 µM | – | > 100 µM (inactive) | > 100 µM (inactive) | –
COC(=O)N/N=C(\C)c1c(O)cc(C)oc1=O | > 100 µM (inactive) | 50.8 µM (inactive) | – | 22.1 µM (inactive) | > 100 µM (inactive) | – | 35.2 µM (inactive) | – | > 100 µM (inactive) | > 100 µM (inactive) | 37.2 µM (inactive) | 65.3 µM (inactive) | 33.2 µM (inactive) | – | 17 µM | – | 56.2 µM (inactive) | 14.7 µM (inactive) | –
CCCCOC(=O)NC(=O)c1cn(CCCOC(=O)NCCCCCCNC(=O)OCCCn2cc(C(=O)NC(=O)OCCCC)c(=O)[nH]c2=O)c(=O)[nH]c1=O | – | > 100 µM (inactive) | – | > 100 µM (inactive) | > 100 µM (inactive) | > 100 µM (inactive) | > 100 µM (inactive) | > 100 µM (inactive) | > 100 µM (inactive) | > 100 µM (inactive) | > 100 µM (inactive) | > 100 µM (inactive) | 41.8 µM (inactive) | > 100 µM (inactive) | > 100 µM | > 100 µM (inactive) | > 100 µM (inactive) | > 100 µM (inactive) | –
CCOc1ccc(/N=C/c2c3ccccc3nc3ccccc23)cc1 | > 100 µM (inactive) | 38.9 µM (inactive) | 58.2 µM (inactive) | 71 µM (inactive) | 68.1 µM (inactive) | > 10 µM (inactive) | 55.2 µM (inactive) | > 100 µM (inactive) | 55.1 µM (inactive) | > 100 µM (inactive) | – | 21.8 µM (inactive) | 83 µM (inactive) | 31.1 µM (inactive) | 25.1 µM | 46.2 µM (inactive) | 39.7 µM (inactive) | 65.6 µM (inactive) | –
S=c1sc2c(S)nc(S)nc2n1-c1ccccc1 | > 100 µM (inactive) | > 100 µM (inactive) | > 100 µM (inactive) | > 100 µM (inactive) | 41 µM (inactive) | > 100 µM (inactive) | > 100 µM (inactive) | > 100 µM (inactive) | > 100 µM (inactive) | > 100 µM (inactive) | > 100 µM (inactive) | > 100 µM (inactive) | > 100 µM (inactive) | > 100 µM (inactive) | > 100 µM | > 100 µM (inactive) | > 100 µM (inactive) | > 100 µM (inactive) | –
O=C1C2C3C=C4c5ccccc5N(c5ccccc5)C4(C2C(=O)N1c1ccc(Br)cc1)[C@H]1C(=O)N(c2ccc(Br)cc2)C(=O)[C@@H]31 (some centres not stated) | > 100 µM (inactive) | > 100 µM (inactive) | 18.8 µM (inactive) | – | > 100 µM (inactive) | > 100 µM (inactive) | 43.4 µM (inactive) | 31.6 µM (inactive) | > 100 µM (inactive) | > 100 µM (inactive) | 38.9 µM (inactive) | > 100 µM (inactive) | 89.3 µM (inactive) | > 100 µM (inactive) | > 100 µM | > 100 µM (inactive) | > 100 µM (inactive) | > 100 µM (inactive) | –
COC(=O)[C@@]12OC[C@]34C([C@@H](O)C1O)[C@@]1(C)CC(=O)C(OC(=O)/C=C(/c5ccccc5)C(F)(F)F)=C(C)C1C[C@H]3OC(=O)[C@H](O)[C@H]42 (some centres not stated) | 6.5 µM (inactive) | 4.83 µM (inactive) | 20.1 µM (inactive) | 11.2 µM (inactive) | 0.52 µM (active) | 21.8 µM (inactive) | 8.77 µM (inactive) | 11.2 µM (inactive) | 8.73 µM (inactive) | 7.89 µM (inactive) | 3.29 µM (inactive) | 6.76 µM (inactive) | 10.1 µM (inactive) | – | 23.8 µM | 16.9 µM (inactive) | 9.04 µM (inactive) | 3.79 µM (inactive) | –
